The text below walks through data of PubChem BioAssay AID1159565 (GlaxoSmithKline (GSK), 2015).

Molecules are shown by their SMILES.

The first assay has as its system T. cruzi-infected H9C2 cardiomyocytes, high-content imaging. Description: intracellular T. cruzi amastigote inhibition, imaging, H9C2 host cardiomyocytes, host toxicity (AID 1159565).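 Note: infected cells incubated 72 h after plating.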 Conditions: measured here: H9C2 host cell toxicity.
The IC50 is the concentration needed to halve the response being measured. Read a low IC50 as greater potency. `O=C(CN(Cc1ccccn1)Cc1ccccn1)NC1Cc2ccccc2C1` yielded a 50% inhibitory concentration (IC50) above 79000 nM.
The same measure, in the same setting: the value for `COc1ccc(C2CC(c3ccccc3Cl)=NN2C(=O)CNC(=O)C2CCC2)cc1` (stereo unspecified) was above 50000 nM.
Same read-out and setting: the value for `Cc1ccc(C)c(-n2nnnc2Sc2nc([N+](=O)[O-])nn2C)c1` was above 50000 nM; that for `c1ccc(-c2nc(NC3CCCC3)c3ccccc3n2)nc1` was 500 nM; that for `O=C(NCC1CCCCC1)c1cnns1` was above 50000 nM.
Molecule `COc1ncc(-c2ccc3ncnc(N4CCOCC4)c3c2)cc1NS(C)(=O)=O` gave an IC50 of 1600 nM.
Consider `Cc1ccc(S(C)(=O)=O)cc1Nc1nccc(-c2sc(N)nc2-c2ccccc2)n1`, for which the IC50 was found to be 5000 nM.
`COc1ccc(C(C)(C)C)cc1S(=O)(=O)n1ccnc1` yielded an IC50 above 50000 nM.
For `CCCN1CCN(Cc2ccc(S(=O)(=O)Nc3cccc(C)c3)cc2)CC1`, the IC50 was above 50000 nM.
Still for that read-out and setting: the value for `Cn1ccnc1-c1nc(NCc2ccccc2Cl)cc(C2CC2)n1` was 630 nM.
Same read-out and setting: the value for `CC(C)c1cc(Nc2cc(Cc3ccccc3)nc(NC3CCC(O)CC3)n2)n[nH]1` (stereo unspecified) was 6.3 nM.
Molecule `COCc1cc(Nc2ccccc2)nc(-c2ccccn2)n1` showed an IC50 of 4000 nM.
`CCOc1ccc(NC(=O)C=Cc2ccc(CC)o2)cc1` registered an IC50 above 50000 nM.
On the same count and under the same terms, the value for `COc1cc(Nc2nccc(Nc3onc(C)c3C)n2)cc(S(=O)(=O)C2CCOCC2)c1` was 10000 nM; that for `COC(=O)c1ccc(-c2cnc3ccc(NCc4ccccn4)nn23)cc1` was above 50000 nM; that for `CCCN(Cc1ccc(OC)c(OC)c1)Cc1cc(=O)c2c(C)cc(C)cc2[nH]1` was above 50000 nM.
`Cc1nc(N2CCC(C(=O)N3CCC(O)(c4cccnc4)CC3)CC2)nc2ccc(C(C)C)cc12` registered an IC50 of 40000 nM.
Same read-out and setting: the value for `CNC(=O)C1Cc2ccccc2N1C(=O)COc1cccc(OC)c1` (stereo unspecified) was above 50000 nM; that for `Cc1ccccc1NS(=O)(=O)c1ccc2[nH]cc(C(=O)NC3CCCCC3)c(=O)c2c1` was 25000 nM; that for `O=C(N1CCc2ccccc2CC1)C1(C(=O)N2CCC(n3c(=O)[nH]c4ncccc43)CC2)CC1` was above 50000 nM.
On the same count and under the same terms, the value for `O=C(c1cccc(Nc2ncc(-c3ccc4c(c3)OCO4)cn2)c1)N1CCOCC1` was 6300 nM.
As for `COc1ccc(-c2nc3ccncc3c(=O)n2CCOc2ccccc2)cc1`, the IC50 is above 50000 nM.
Same read-out and setting: the value for `Cc1nc2c(-c3n[nH]c(-c4ccccc4N)n3)cccn2c1C` was 5000 nM.
On the same count and under the same terms, the value for `N#Cc1c(Oc2cccc(Cl)c2)cccc1[N+](=O)[O-]` was 16000 nM.
Still for that read-out and setting: the value for `Cc1nn(C2CCS(=O)(=O)C2)c(C)c1CN(C)C(=O)C=Cc1sc2ccccc2c1Cl` (stereo unspecified) was above 50000 nM; that for `Cc1nc(C(=O)Nc2ccc3c(c2)OCO3)nn1-c1ccc(F)cc1` was above 50000 nM; that for `Cn1nc(C(=O)N2CCc3ccccc32)c2c1CCS(=O)(=O)C2` was above 50000 nM.
Take `CCc1cccc(CC)c1-n1c(SCC(=O)NC(=O)NCc2ccco2)nnc1-c1cccnc1`: the IC50 is above 50000 nM.
In the case of `NS(=O)(=O)c1ccc(CNC(=O)c2ccc([N+](=O)[O-])s2)cc1`, the IC50 is 20000 nM.

Staying with this assay, now noted: measured here: amastigotes per cell.
In turn, `Cc1c(C(C)NC(=O)Nc2cccc(Cl)c2)sc2ncnn12` (stereo unspecified) displayed an IC50 of 160 nM.
`Cc1cccc(NS(=O)(=O)c2cnc3sc(C)cn3c2=O)c1` gave an IC50 of 1000 nM.
Still for that read-out and setting: the value for `O=C(Nc1nc2cc(Cl)ccc2o1)c1cccc(Cl)c1` was 630 nM; that for `CC(C)c1sc(Cl)nc1C(=O)NCCc1nc(C(=O)Nc2ccc3c(c2)OCO3)cs1` was 630 nM; that for `Cc1ccc(Nc2nc(C3CCCN3Cc3ccn[nH]3)cs2)nc1` (stereo unspecified) was 2000 nM.
In the case of `CC(c1ccccn1)N(C)Cc1nc2ccccc2n1C(C)C` (stereo unspecified), the IC50 amounted to 2000 nM.
In the case of `Clc1ccc(OCCN2CCCCC2c2cccnc2)c(Cl)c1` (stereo unspecified), the IC50 was found to be 160 nM.
`COCCn1c(-c2ccc3c(c2)OCO3)cnc1NCc1ccccc1OC`: the IC50 worked out at 7900 nM.
Still for that read-out and setting: the value for `CCCCc1cc(Nc2cc(C3CCC3)[nH]n2)nc(N2CCC2C(N)=O)n1` (stereo unspecified) was 1600 nM.
As for `COc1ccccc1C1CC(c2ccc(NS(C)(=O)=O)cc2)=NN1C(=O)c1cccs1` (stereo unspecified), the IC50 was above 50000 nM.
The same measure, in the same setting: the value for `c1ccc2c(CCOc3nccnc3-c3ccncc3)c[nH]c2c1` was 160 nM; that for `COc1ccc(C(C)N(C)c2ncc3c(N)nc(N)nc3n2)cc1F` (stereo unspecified) was 63 nM.
As for `CC(Cn1ccnc1)NC(=O)COc1ccc(Cl)c(Cl)c1` (stereo unspecified), the IC50 is 400 nM.
Same read-out and setting: the value for `CCc1ccc2nc(NC(=O)c3cc(N4CCOCC4)ccn3)sc2c1` was 500 nM.
Still for that read-out and setting: the value for `CCOc1ccc(Nc2ccc(S(=O)(=O)N3CCN(C)CC3)cc2[N+](=O)[O-])cc1OCC` was 3200 nM; that for `Cc1cccc(Nc2nc(-c3ccccn3)cs2)n1` was 790 nM; that for `Nc1nc(-c2ccccn2)nc(N)c1Cc1c(F)cccc1Cl` was 1600 nM.
The same measure, in the same setting: the value for `O=C(Nc1nc2ccccc2[nH]1)c1c(O)c2cccc3c2n(c1=O)CC3` was 25000 nM; that for `O=c1[nH]ccc2ccc(-c3ccncc3)cc12` was 250 nM.
Turning to `CC(Cn1ccnc1)NC(=O)C=Cc1ccc(Cl)cc1` (stereo unspecified), the IC50 amounted to 630 nM.
Same read-out and setting: the value for `OC1CCC(Nc2nccc(-c3sc(C4CCOCC4)nc3-c3ccc(F)c(F)c3)n2)CC1` (stereo unspecified) was 200 nM; that for `CC(Cn1ccnc1)NC(=O)C1CC1c1cccc(Cl)c1Cl` (stereo unspecified) was 200 nM.
Same read-out and setting: the value for `CCCn1c(NC(=O)CCn2cc(Br)cn2)nc2ccccc21` was 2500 nM; that for `NCc1csc(Nc2cc(Oc3ccccc3)ncn2)n1` was 32000 nM.
The molecule `FC(F)(F)c1cc(C2CCCN(Cc3c[nH]c4ccccc34)C2)nc2ncnn12` (stereo unspecified) came in with an IC50 of 6300 nM.
Take `COCc1cnc2c(c1SCc1c(F)cccc1Cl)c(=O)n(C)c(=O)n2C`: the IC50 came out at 2500 nM.
The molecule `CN(Cc1cccnc1)Cc1ccc(N2CCN(C(=O)C3(c4ccc(Cl)cc4)CC3)CC2)nc1` had an IC50 of 1300 nM.
The same measure, in the same setting: the value for `CCOc1cnn(C)c(=O)c1Nc1ccc(C(=O)NCc2ccc(F)cc2)cc1` was 130 nM.
The same measure, in the same setting: the value for `O=C(CN(Cc1ccccn1)Cc1ccccn1)NC1Cc2ccccc2C1` was 6300 nM.
Still for that read-out and setting: the value for `COc1ccc(C2CC(c3ccccc3Cl)=NN2C(=O)CNC(=O)C2CCC2)cc1` (stereo unspecified) was 1000 nM.
On to `Cc1ccc(C)c(-n2nnnc2Sc2nc([N+](=O)[O-])nn2C)c1`, for which the IC50 amounted to 250 nM.
Take `c1ccc(-c2nc(NC3CCCC3)c3ccccc3n2)nc1`: the IC50 is 2000 nM.
Take `O=C(NCC1CCCCC1)c1cnns1`: the half-inhibitory concentration (IC50) amounted to 2000 nM.
Still for that read-out and setting: the value for `COc1ncc(-c2ccc3ncnc(N4CCOCC4)c3c2)cc1NS(C)(=O)=O` was 2500 nM.
Still for that read-out and setting: the value for `Cc1ccc(S(C)(=O)=O)cc1Nc1nccc(-c2sc(N)nc2-c2ccccc2)n1` was 79 nM; that for `COc1ccc(C(C)(C)C)cc1S(=O)(=O)n1ccnc1` was 200 nM; that for `CCCN1CCN(Cc2ccc(S(=O)(=O)Nc3cccc(C)c3)cc2)CC1` was 630 nM.
`Cn1ccnc1-c1nc(NCc2ccccc2Cl)cc(C2CC2)n1`: the IC50 came out at 790 nM.
Same read-out and setting: the value for `CC(C)c1cc(Nc2cc(Cc3ccccc3)nc(NC3CCC(O)CC3)n2)n[nH]1` (stereo unspecified) was 32 nM; that for `COCc1cc(Nc2ccccc2)nc(-c2ccccn2)n1` was 13000 nM.
`CCOc1ccc(NC(=O)C=Cc2ccc(CC)o2)cc1` yielded an IC50 of 16000 nM.
For the molecule `COc1cc(Nc2nccc(Nc3onc(C)c3C)n2)cc(S(=O)(=O)C2CCOCC2)c1`, the IC50 was found to be 13000 nM.
As to `COC(=O)c1ccc(-c2cnc3ccc(NCc4ccccn4)nn23)cc1`, the IC50 came to 5000 nM.
`CCCN(Cc1ccc(OC)c(OC)c1)Cc1cc(=O)c2c(C)cc(C)cc2[nH]1` showed an IC50 of 500 nM.
In the case of `Cc1nc(N2CCC(C(=O)N3CCC(O)(c4cccnc4)CC3)CC2)nc2ccc(C(C)C)cc12`, the IC50 turned out to be 400 nM.
The same measure, in the same setting: the value for `CNC(=O)C1Cc2ccccc2N1C(=O)COc1cccc(OC)c1` (stereo unspecified) was above 50000 nM; that for `Cc1ccccc1NS(=O)(=O)c1ccc2[nH]cc(C(=O)NC3CCCCC3)c(=O)c2c1` was 10000 nM; that for `O=C(N1CCc2ccccc2CC1)C1(C(=O)N2CCC(n3c(=O)[nH]c4ncccc43)CC2)CC1` was 630 nM.
Take `O=C(c1cccc(Nc2ncc(-c3ccc4c(c3)OCO4)cn2)c1)N1CCOCC1`: the IC50 came out at 790 nM.
On the same count and under the same terms, the value for `COc1ccc(-c2nc3ccncc3c(=O)n2CCOc2ccccc2)cc1` was 400 nM.
In turn, `Cc1nc2c(-c3n[nH]c(-c4ccccc4N)n3)cccn2c1C` gave an IC50 of 1600 nM.
On to `N#Cc1c(Oc2cccc(Cl)c2)cccc1[N+](=O)[O-]`, for which the IC50 is 130 nM.
Still for that read-out and setting: the value for `Cc1nn(C2CCS(=O)(=O)C2)c(C)c1CN(C)C(=O)C=Cc1sc2ccccc2c1Cl` (stereo unspecified) was 320 nM; that for `Cc1nc(C(=O)Nc2ccc3c(c2)OCO3)nn1-c1ccc(F)cc1` was 1000 nM; that for `Cn1nc(C(=O)N2CCc3ccccc32)c2c1CCS(=O)(=O)C2` was 7900 nM.
On the same count and under the same terms, the value for `CCc1cccc(CC)c1-n1c(SCC(=O)NC(=O)NCc2ccco2)nnc1-c1cccnc1` was 7900 nM.
Molecule `NS(=O)(=O)c1ccc(CNC(=O)c2ccc([N+](=O)[O-])s2)cc1` showed an IC50 of 790 nM.
